Consider one substance from paper PMC12767106, “In Situ Assembly of Transformable Monopeptide on Activated Neutrophils Attenuates NETs‐Induced Hepatocellular Carcinoma Metastasis by Disrupting NE Nuclear Translocation” (Advanced Science, 2025).

A short description of this data set: Zeta potential before and after incubation with NE. The following applies: 20 µM, mean ± s.d., n = 3. Type of data set: physicochemical. How it is done:
Submitted to Advanced Science temperature. Following the incubation, 10 µL of the solution was added to a copper mesh at 0 and 24 h. Filter paper was used to remove any extra droplets after an overnight stay. The samples were then stained for five minutes with uranyl acetate and then rinsed for one minute with water (10 µL). Finally, dried samples were observed by TEM (Talos 120C, Thermo Fisher Scientific, USA). DLS (Zetasizer Nano ZS, UK) was used to assess the solution for hydrodynamic size and zeta potential at 0 and 24 h following the incubation. Then, the nanofiber structure at 0 h and 24 h after incubation of FTP-NPs was examined with Circular Dichroism (CD) Spectra (Chirascan, UM, Britain). In addition, the variation of fluorescence emission spectra of PpIX by […]
transformation of FTP-NPs.
Pyrene molecules were employed as an indicator to determine the critical aggregation concentration (CAC) of nanoparticles by comparing the fluorescence of their third and first emissive peaks. […] The fluorescence spectra of pyrene (excitation, 335 nm) in different NPs dilutions were recorded. The fluorescence intensity ratio (I3/I1) of the third and first emissive peaks was measured for CAC calculation. […]
Figure S3. […] (a, b) Changes in fluorescence and UV–vis absorption of FTP-NPs following the gradual addition of water (from 0 to 99.5%) to a solution of NPs in Dimethyl Sulfoxide (DMSO). […]

For PpIX-GFFVLK-EAIPMSIPPEVK [FTP-NPs], the “zeta potential, initial NPs” value (before fibrillar transformation) came to 21.7±0.6 mV. For the setting “with NE for 24 h”, the “zeta potential after fibrillar transformation” value was 9.2±0.2 mV.
